Data reported in ChEMBL document CHEMBL1151710, “Sesquiterpenes from the sponge Axinyssa isabela” (2008).
Activity calls are given as the source filed them. No cut-off for these calls is given here.

Tests used:
HT-29 [1] = experiment: Cytotoxicity against human HT-29 cells at 10 ug/ml by SRB assay; type: functional, cell-based
MDA-MB-231 [2] = experiment: Cytotoxicity against human MDA-MB-231 cells at 10 ug/ml by SRB assay; type: functional, cell-based
A549 [3] = experiment: Cytotoxicity against human A549 cells at 10 ug/ml by SRB assay; type: functional, cell-based
A549 [4] = experiment: Cytotoxicity against human A549 cells by SRB assay; type: functional
MDA-MB-231 [5] = experiment: Cytotoxicity against human MDA-MB-231 cells by SRB assay; type: functional
HT-29 [6] = experiment: Cytotoxicity against human HT-29 cells by SRB assay; type: functional

Structure (SMILES): C[C@H]1CC[C@@H](OO)C2=CC(=O)[C@H]3[C@H](C3(C)C)[C@@]21C
- Activity (HT-29 [1]): inactive
- Activity (MDA-MB-231 [2]): inactive
- Activity (A549 [3]): inactive

Structure (SMILES): C[C@H]1CCCC2=CC(=O)[C@H]3[C@H](C3(C)C)[C@@]21C
- Activity (HT-29 [1]): inactive
- Activity (MDA-MB-231 [2]): inactive
- Activity (A549 [3]): inactive

Structure (SMILES): C=C(C)[C@]1(O)CC[C@@]2(C)CCC[C@@](C)(N=C=S)[C@@H]2C1
- Activity (HT-29 [1]): inactive
- Activity (MDA-MB-231 [2]): inactive
- Activity (A549 [3]): inactive

Structure (SMILES): C=C(C)[C@]1(OO)CC[C@@]2(C)CCC[C@@](C)(N=C=S)[C@@H]2C1 [AXINISOTHIOCYANATE N]
- GI50 (A549 [4]): 32.6 µM
- GI50 (MDA-MB-231 [5]): 33.3 µM

Structure (SMILES): CC(C)=CCCC(C)(N=C=S)[C@H]1CC=C(C)CC1 (some centres not stated)
- Activity (HT-29 [1]): inactive
- Activity (MDA-MB-231 [2]): inactive
- Activity (A549 [3]): inactive

Structure (SMILES): C[C@H]1CC[C@H](O)C2=CC(=O)[C@H]3[C@H](C3(C)C)[C@@]21C
- Activity (HT-29 [1]): inactive
- Activity (MDA-MB-231 [2]): inactive
- Activity (A549 [3]): inactive

Structure (SMILES): C[C@H]1CC(=O)C=C2[C@H]3O[C@H]3[C@H]3[C@H](C3(C)C)[C@@]21C [AXINYSONE E]
- GI50 (A549 [4]): 38.7 µM
- GI50 (HT-29 [6]): 38.3 µM

Structure (SMILES): C=C(C)[C@H]1CC[C@@]2(C)CCC[C@@](C)(N=C=S)[C@@H]2C1
- Activity (HT-29 [1]): inactive
- Activity (MDA-MB-231 [2]): inactive
- Activity (A549 [3]): inactive

Structure (SMILES): C[C@H]1CCC[C@]2(O)[C@@H](O)C(=O)[C@H]3[C@H](C3(C)C)[C@]12C
- Activity (HT-29 [1]): inactive
- Activity (MDA-MB-231 [2]): inactive
- Activity (A549 [3]): inactive

Structure (SMILES): C[C@H]1CC[C@@H](O)C2=CC(=O)[C@H]3[C@H](C3(C)C)[C@@]21C
- Activity (HT-29 [1]): inactive
- Activity (MDA-MB-231 [2]): inactive
- Activity (A549 [3]): inactive

Structure (SMILES): COc1cccc2c1C(=O)c1c(O)c3c(c(O)c1C2=O)C[C@@](O)(C(=O)CO)C[C@@H]3O[C@H]1C[C@H](N)[C@H](O)[C@H](C)O1 [DOXORUBICIN]
- GI50 (A549 [4]): 0.1 µM
- GI50 (HT-29 [6]): 0.1 µM
- GI50 (MDA-MB-231 [5]): 0.1 µM

Structure (SMILES): C=C1CCC[C@]2(C)CC[C@@H](C(=C)C)[C@H](N=C=S)[C@@H]12
- Activity (HT-29 [1]): inactive
- Activity (MDA-MB-231 [2]): inactive
- Activity (A549 [3]): inactive

Structure (SMILES): C[C@H]1CCCC2=C[C@H](C#N)[C@H]3[C@H](C3(C)C)[C@@]21C
- Activity (HT-29 [1]): inactive
- Activity (MDA-MB-231 [2]): inactive
- Activity (A549 [3]): inactive
